These results are taken from patent US7825253B2, “2-aminoquinoline derivatives” (Hoffmann-La Roche Inc., priority 2006, dated 2010).

Broadly, the Ki is a measure of affinity in units of concentration, obtained from inhibition or displacement.

In the first assay the target is T1, recombinant human 5-HT5A receptor (Homo sapiens, UniProt P47898).
T1 construct: expressed in transfected cells; host or cells: Human Embryonic Kidney-EBNA (HEK-EBNA) cells, transient cDNA expression; membranes
T1 sequence (P47898 whole entry): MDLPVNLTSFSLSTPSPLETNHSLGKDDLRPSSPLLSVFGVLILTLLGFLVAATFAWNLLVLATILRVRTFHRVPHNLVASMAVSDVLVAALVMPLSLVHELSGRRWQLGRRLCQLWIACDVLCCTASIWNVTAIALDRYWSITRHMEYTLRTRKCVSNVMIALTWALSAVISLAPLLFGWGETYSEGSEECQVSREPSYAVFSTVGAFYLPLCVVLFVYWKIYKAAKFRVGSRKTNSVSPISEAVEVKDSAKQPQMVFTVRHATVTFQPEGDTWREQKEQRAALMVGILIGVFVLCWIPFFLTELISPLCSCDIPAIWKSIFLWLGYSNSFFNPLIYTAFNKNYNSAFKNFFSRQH
In words: [3H]LSD radioligand binding assay.
Conditions: not given
How it is done: A [^3H]LSD radioligand binding assay was used to determine the affinity of the compounds for the recombinant human 5-HT5A receptor, in membranes from transiently (cDNA) expressed 5-HT5A receptors in Human Embryonic Kidney-EBNA (HEK-EBNA) cells. Assay buffer consisted of Tris (50 mM) buffer containing 1 mM EGTA, 10 mM MgCl2 (pH 7.4) and 10 μM pargyline. The binding assay was carried out in 96-well-plates in the presence of [^3H]LSD (approximately 1 nM), approximately 2 μg/well of membrane protein, and 0.5 mg of Ysi-poly-l-lysine SPA beads in a final volume of 200 μl of buffer. Non-specific binding was defined using methiothepin 2 μM. Compounds were tested at 10 concentrations. All assays were conducted in duplicate and repeated at least two times. Assay plates were incubated for 120 min at room temperature before centrifugation. Bound ligand was determined using a Packard Topcount scintillation counter. IC50 values were calculated using a non-linear curve fitting program and Ki values calculated using the Cheng-Prussoff equation.
With `CC(Nc1cccc2nc(Nc3cccc4c3OC(C)(C)C4)ccc12)c1cc(F)cc(F)c1` (single isomer, unassigned; (+)) [Example 158, (+)-N5-[1-(3,5-Difluoro-phenyl)-ethyl]-N2-(2,2-dimethyl-2,3-dihydro-benzofuran-7-yl)-quinoline-2,5-diamine], the “activity at the 5-HT5A receptor (in words)” value is “more active”.

Still in this assay, the particulars now being: [3H]LSD approx. 1 nM; membranes from HEK-EBNA cells transiently expressing 5-HT5A; Ki from IC50 by Cheng-Prussoff.
`CC1Cc2cccc(Nc3ccc4c(NS(=O)(=O)c5cc(F)cc(F)c5)cccc4n3)c2O1` (racemic) [Example 134, rac-3,5-Difluoro-N-[2-(2-methyl-2,3-dihydro-benzofuran-7-ylamino)-quinolin-5-yl]-benzenesulfonamide]: the Ki was 21.7 nM. On the same count and under the same terms, as for `Cc1ccc(CNc2ccc3c(NC4CCSc5ccccc54)cccc3n2)o1` (racemic) [Example 135, rac-N2-(5-Methyl-furan-2-ylmethyl)-N5-thiochroman-4-yl-quinoline-2,5-diamine], the figure is 17.1 nM; as for `Cc1ccc(CNc2ccc3c(NC4CCOc5ccccc54)cccc3n2)o1` (racemic) [Example 142, rac-N5-Chroman-4-yl-N2-(5-methyl-furan-2-ylmethyl)-quinoline-2,5-diamine], 37.1 nM; as for `Cc1ccc(CNc2ccc3c(NC4CCS(=O)(=O)c5ccccc54)cccc3n2)o1` (racemic) [Example 143, rac-5-(1,1-Dioxo-1l6-thiochroman-4-yl)-N2-(5-methyl-furan-2-ylmethyl)-quinoline-2,5-diamine], 18.2 nM. As for `CC1(C)Cc2cccc(Nc3ccc4c(NC5CCS(=O)(=O)c6ccccc65)cccc4n3)c2O1` (racemic) [Example 144, rac-N2-(2,2-Dimethyl-2,3-dihydro-benzofuran-7-yl)-N5-(1,1-dioxo-1l6-thiochroman-4-yl)-quinoline-2,5-diamine], the Ki was found to be 15.4 nM. Still for that read-out and setting: the figure for `CC(Nc1cccc2nc(Nc3cccc4c3OC(C)(C)C4)ccc12)c1cc(F)cc(F)c1` (racemic) [Example 151, rac-N5-[1-(3,5-Difluoro-phenyl)-ethyl]-N2-(2,2-dimethyl-2,3-dihydro-benzofuran-7-yl)-quinoline-2,5-diamine] is 4.74 nM; for `CC(Nc1cccc2nc(Nc3cccc4c3OC(C)(C)C4)ccc12)c1nccs1` (racemic) [Example 160, rac-N2-(2,2-Dimethyl-2,3-dihydro-benzofuran-7-yl)-N5-(1-thiazol-2-yl-ethyl)-quinoline-2,5-diamine] it is 15.8 nM. Same read-out and setting: as for `CC(Nc1cccc2nc(Nc3cccc4c3OC(C)(C)C4)ccc12)c1cccnc1` (racemic) [Example 162, rac-N2-(2,2-Dimethyl-2,3-dihydro-benzofuran-7-yl)-N5-(1-pyridin-3-yl-ethyl)-quinoline-2,5-diamine], the figure is 7.15 nM; as for `CC(Nc1cccc2nc(Nc3cccc4c3OC(C)(C)C4)ccc12)c1cc(F)cc(F)c1` (single isomer, unassigned; (+)) [Example 158, (+)-N5-[1-(3,5-Difluoro-phenyl)-ethyl]-N2-(2,2-dimethyl-2,3-dihydro-benzofuran-7-yl)-quinoline-2,5-diamine], 3.1 nM.

For `COc1ccccc1CNc1ccc2c(NCc3cccnc3)cccc2n1` [Example 1, N2-(2-Methoxy-benzyl)-N5-pyridin-3-ylmethyl-quinoline-2,5-diamine], the Ki came to 8.65 nM. In the case of `COc1ccccc1CNc1ccc2c(CCc3ccccc3)cccc2n1` [Example 4, (2-Methoxy-benzyl)-(5-phenethyl-quinolin-2-yl)-amine], the Ki was determined as 9.51 nM. For the molecule `COc1cccc(CNc2cccc3nc(NCc4ccccc4OC)ccc23)c1` [Example 5, N5-(3-Methoxy-benzyl)-N2-(2-methoxy-benzyl)-quinoline-2,5-diamine], the Ki was 9.7 nM.

For the molecule `COc1ccccc1CNc1ccc2c(NCc3ccccc3OC)cccc2n1` [Example 6, N2,N5-Bis-(2-methoxy-benzyl)-quinoline-2,5-diamine], the Ki worked out at 10.2 nM.

`COc1ccccc1CNc1ccc2c(NCc3ccccc3)cccc2n1` [Example 7, N5-Benzyl-N2-(2-methoxy-benzyl)-quinoline-2,5-diamine]: the Ki was found to be 7.57 nM.

For `COc1ccccc1CNc1ccc2c(NCc3ccncc3)cccc2n1` [Example 9, N2-(2-Methoxy-benzyl)-N5-pyridin-4-ylmethyl-quinoline-2,5-diamine], the Ki was 34.5 nM.

Consider `COc1ccccc1CNc1cccc2nc(NCc3ccc(C)o3)ccc12` [Example 13, N5-(2-Methoxy-benzyl)-N2-(5-methyl-furan-2-ylmethyl)-quinoline-2,5-diamine], for which the Ki came to 15.3 nM. Same read-out and setting: as for `Cc1ccc(CNc2ccc3c(NCc4cccnc4)cccc3n2)o1` [Example 15, N2-(5-Methyl-furan-2-ylmethyl)-N5-pyridin-3-ylmethyl-quinoline-2,5-diamine], the figure is 11.1 nM. On the same count and under the same terms, the figure for `COc1ccccc1CNc1ccc2c(CCc3cccnc3)cccc2n1` [Example 16, (2-Methoxy-benzyl)-[5-(2-pyridin-3-yl-ethyl)-quinolin-2-yl]-amine] is 32.6 nM. On to `Cc1ccc(CNc2ccc3c(CCc4ccccc4)cccc3n2)o1` [Example 17, (5-Methyl-furan-2-ylmethyl)-(5-phenethyl-quinolin-2-yl)-amine], for which the Ki was 21.3 nM. Still for that read-out and setting: as for `Cc1ccc(CNc2ccc3c(NCc4ccc(F)cc4)cccc3n2)o1` [Example 20, N5-(4-Fluoro-benzyl)-N2-(5-methyl-furan-2-ylmethyl)-quinoline-2,5-diamine], the figure is 25.4 nM. Same read-out and setting: as for `Cc1ccc(CNc2ccc3c(CNc4cccnc4)cccc3n2)o1` [Example 21, (5-Methyl-furan-2-ylmethyl)-[5-(pyridin-3-ylaminomethyl)-quinolin-2-yl]-amine], the figure is 35.8 nM. Same read-out and setting: as for `Cc1ccc(CNc2ccc3c(CNc4ccccc4)cccc3n2)o1` [Example 22, (5-Methyl-furan-2-ylmethyl)-(5-phenylaminomethyl-quinolin-2-yl)-amine], the figure is 23.5 nM; as for `COc1ccccc1CNc1ccc2c(CCc3cccc(CO)c3)cccc2n1` [Example 23, (3-{2-[2-(2-Methoxy-benzylamino)-quinolin-5-yl]-ethyl}-phenyl)-methanol], 18.4 nM; as for `Cc1ccc(CNc2ccc3c(NCc4ccccn4)cccc3n2)o1` [Example 26, N2-(5-Methyl-furan-2-ylmethyl)-N5-pyridin-2-ylmethyl-quinoline-2,5-diamine], 21 nM. Regarding `COc1ncccc1CNc1cccc2nc(NCc3ccc(C)o3)ccc12` [Example 27, N5-(2-Methoxy-pyridin-3-ylmethyl)-N2-(5-methyl-furan-2-ylmethyl)-quinoline-2,5-diamine], the Ki is 43 nM. On the same count and under the same terms, the figure for `COCCOc1cccc(CNc2cccc3nc(NCc4ccc(C)o4)ccc23)c1` [Example 28, N5-[3-(2-Methoxy-ethoxy)-benzyl]-N2-(5-methyl-furan-2-ylmethyl)-quinoline-2,5-diamine] is 49.4 nM. Same read-out and setting: the figure for `Cc1cccc(CNc2cccc3nc(NCc4ccc(C)o4)ccc23)n1` [Example 29, N2-(5-Methyl-furan-2-ylmethyl)-N5-(6-methyl-pyridin-2-ylmethyl)-quinoline-2,5-diamine] is 17.5 nM; for `COCc1cccc(CCc2cccc3nc(NCc4ccc(C)o4)ccc23)c1` [Example 33, {5-[2-(3-Methoxymethyl-phenyl)-ethyl]-quinolin-2-yl}-(5-methyl-furan-2-ylmethyl)-amine] it is 39.3 nM; for `Cc1ccc(CNc2ccc3c(CCc4cccc(S(N)(=O)=O)c4)cccc3n2)o1` [Example 34, 3-(2-{2-[(5-Methyl-furan-2-ylmethyl)-amino]-quinolin-5-yl}-ethyl)-benzenesulfonamide] it is 12.4 nM. Still for that read-out and setting: as for `Cc1ccc(CNc2ccc3c(NCc4cccc(S(N)(=O)=O)c4)cccc3n2)o1` [Example 35, 3-({2-[(5-Methyl-furan-2-ylmethyl)-amino]-quinolin-5-ylamino}-methyl)-benzenesulfonamide], the figure is 17 nM; as for `Cc1ccc(CNc2ccc3c(CNc4ccccn4)cccc3n2)o1` [Example 37, (5-Methyl-furan-2-ylmethyl)-[5-(pyridin-2-ylaminomethyl)-quinolin-2-yl]-amine], 49.5 nM. In the case of `Cc1ccc(CNc2ccc3c(NS(=O)(=O)c4ccccc4)cccc3n2)o1` [Example 39, N-{2-[(5-Methyl-furan-2-ylmethyl)-amino]-quinolin-5-yl}-benzenesulfonamide], the Ki came out at 28.7 nM.

As to `Cc1ccc(CNc2ccc3c(NS(=O)(=O)c4ccc(F)cc4)cccc3n2)o1` [Example 42, N-{2-[(5-Methyl-furan-2-ylmethyl)-amino]-quinolin-5-yl}-4-fluorobenzenesulfonamide], the inhibition constant (Ki) stood at 12.5 nM. Still for that read-out and setting: as for `Cc1ccc(CNc2ccc3c(Nc4ccc(F)cc4)cccc3n2)o1` [Example 45, N5-(4-Fluoro-phenyl)-N2-(5-methyl-furan-2-ylmethyl)-quinoline-2,5-diamine], the figure is 13.2 nM; as for `Cc1ccc(CNc2ccc3c(SCc4ccccc4)cccc3n2)o1` [Example 46, (5-Benzylsulfanyl-quinolin-2-yl)-(5-methyl-furan-2-ylmethyl)-amine], 34.1 nM. On to `Cc1ccc(CNc2ccc3c(Nc4ccc(Cl)cc4)cccc3n2)o1` [Example 51, N5-(4-Chloro-phenyl)-N2-(5-methyl-furan-2-ylmethyl)-quinoline-2,5-diamine], for which the Ki was determined as 9.09 nM. Consider `Cc1ccc(CNc2ccc3c(CCc4ccccn4)cccc3n2)o1` [Example 54, (5-Methyl-furan-2-ylmethyl)-[5-(2-pyridin-2-yl-ethyl)-quinolin-2-yl]-amine], for which the Ki was 44.7 nM. On to `Cc1ccc(CNc2ccc3c(Nc4ccc(Cl)nc4)cccc3n2)o1` [Example 57, N5-(6-Chloro-pyridin-3-yl)-N2-(5-methyl-furan-2-ylmethyl)-quinoline-2,5-diamine], for which the Ki was found to be 31.4 nM.
